Assay results taken from patent EP2607478A1, “Phenanthroline treated MSC” (Universiteit Twente, priority 2011, dated 2013).
Counter-ions that a name gives are not always drawn.

Test system: MSCs
Experiment: Gene expression analysis by real-time qPCR in treated MSCs
Assay type: cell-based, Human
Settings: primary MSCs, 1 nM, 10 nM and 1 uM, 2 days, qPCR (Figure 7)
Method: MSCs were seeded in triplicate in 6-well plates at 5000 cells/cm^2 and allowed to attach for 10-15 hours in proliferation medium. Upon reaching near confluency, cells were treated as described above. After 2 days of treatment and 2 subsequent days of incubation with fresh medium, cells were lysed immediately with TRIzol. RNA was isolated using a Bioke RNA II nucleospin RNA isolation kit (Machery Nagel) and RNA concentrations were measured using an ND100 spectrophotometer (Nanodrop technologies, USA). cDNA was synthesized from 100 ng of RNA, using iScript (BioRad) according to the manufacturer's protocol. For qualitative PCR, a master mix, containing distilled water, forward primer, reverse primer (Sigma Genosys), BSA, and SYBR green I mix (all from Invitrogen) was prepared. Real-time qPCR was performed in a Light-Cycler (Roche). Light-Cycler data was analyzed using the fit points method of Light-Cycler software. The baseline was set at the lower log-linear part above baseline noise and the crossing […] (Ct value) was determined. Ct values were normalized to the 18S housekeeping gene and delta Ct (Ct, control ― Ct, sample) was used to calculate the upregulation in gene expression (53).

`CCN(CC)CCCC(C)Nc1c2ccc(Cl)cc2nc2ccc(OC)cc12` (stereo not shown) [Quinacrine hydrochloride] was tested, and the VEGF gene expression was “does not affect VEGF gene expression”.
